Where “and” joins values, the source holds several entries; their conditions need not be identical. Equal entries are not always repeated. Where two headings read alike, the source gives them in different places.
Columns and labels:
[1] = molecular target: T1, cAMP phosphodiesterase 3 from human platelets (Homo sapiens, UniProt Q14432); assay: Inhibition of cAMP phosphodiesterase 3 from human platelets; type: biochemical; conditions: for IC50: PDE3, platelet cell extract, X marks this range
T1 construct: from tissue; host or cells: human platelets, cytoplasmic extract
T1 sequence (Q14432 whole entry): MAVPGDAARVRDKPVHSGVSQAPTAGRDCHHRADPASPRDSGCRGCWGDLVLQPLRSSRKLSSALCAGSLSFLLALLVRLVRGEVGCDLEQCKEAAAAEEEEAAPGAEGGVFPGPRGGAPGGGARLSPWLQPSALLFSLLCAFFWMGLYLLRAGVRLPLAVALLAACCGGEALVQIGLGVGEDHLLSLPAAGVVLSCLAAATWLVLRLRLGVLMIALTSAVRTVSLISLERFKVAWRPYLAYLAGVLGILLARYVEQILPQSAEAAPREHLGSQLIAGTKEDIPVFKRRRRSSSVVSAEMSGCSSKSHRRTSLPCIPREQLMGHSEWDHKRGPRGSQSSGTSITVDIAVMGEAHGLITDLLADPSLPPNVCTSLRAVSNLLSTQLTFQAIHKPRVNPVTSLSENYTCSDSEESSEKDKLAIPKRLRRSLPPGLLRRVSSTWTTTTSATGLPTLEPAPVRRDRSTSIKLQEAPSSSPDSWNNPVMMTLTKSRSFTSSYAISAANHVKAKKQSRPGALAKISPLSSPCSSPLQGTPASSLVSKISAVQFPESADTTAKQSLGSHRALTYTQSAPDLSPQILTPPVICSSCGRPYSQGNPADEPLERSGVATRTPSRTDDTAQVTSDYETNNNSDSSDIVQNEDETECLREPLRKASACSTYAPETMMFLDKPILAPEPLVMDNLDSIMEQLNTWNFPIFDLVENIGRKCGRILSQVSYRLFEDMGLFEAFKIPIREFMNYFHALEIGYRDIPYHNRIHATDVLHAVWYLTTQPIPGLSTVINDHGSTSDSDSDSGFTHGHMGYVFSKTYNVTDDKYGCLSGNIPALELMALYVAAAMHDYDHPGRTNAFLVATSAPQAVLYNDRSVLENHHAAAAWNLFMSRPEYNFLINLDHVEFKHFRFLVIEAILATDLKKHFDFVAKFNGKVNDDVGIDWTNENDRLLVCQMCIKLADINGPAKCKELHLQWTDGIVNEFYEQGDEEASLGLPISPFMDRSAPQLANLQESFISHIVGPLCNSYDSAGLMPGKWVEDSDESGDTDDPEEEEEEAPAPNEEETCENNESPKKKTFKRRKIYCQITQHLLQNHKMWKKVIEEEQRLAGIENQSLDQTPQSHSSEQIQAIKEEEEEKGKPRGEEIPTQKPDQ
From the text: Compound 12 was screened for activity against 5 of the major classes of mammalian cyclic nucleotide phosphodiesterase (termed PDE 1 through 5). PDE's 1 through 4 utilize cAMP as substrate while PDE 5 uses cGMP. The broad specificity PDE inhibitor 3-isobutyl-1-methylxanthine (IBMX; Sigma; Catalogue No. 17018)) was used as a positive control in all assays. PDE's for the various assays were partially purified from the following cells/tissues; PDE 1 (bovine heart), PDE 2 (human platelets), PDE 3 (human platelets), PDE 4 (human promonocytic U937 cells) and PDE 5 (human platelets).
Platelet cell extracts were prepared as described above for the U937 cells. The PDE3 assay was performed using platelet cell extract as described above for the PDE 4 assay. Platelets contain PDE 2, 3 and 5. However PDE2 and 5 preferentially utilize cGMP, so in an assay with cAMP as a substrate they are not detected.

[2] = test system: cAMP response element luciferase activity in human U937 monocytic cells; assay: Potentiation of forskolin-induced CRE-luciferase activity in U937 cells; type: cell-based; conditions: U-937, U937 cells co-incubated with 10 μM forskolin, 4 hours, X marks this range
Method: Compounds of the present invention were thereby shown to provide potentiated luciferase expression in U937 cells treated with the adenylyl cyclase activator forskolin.
Human pro-monocytic U937 cells were maintained in RPMI medium containing 10% FCS and 2 mM […]. U937 cells were transiently transfected as described in Biotechniques Vol. 17(6):1058, 1994. Briefly, cells were grown in medium containing serum to a density of 5×10^6 cells/mL and then resuspended in media containing serum at a density of approximately 1×10^7 cells/mL. 400 μL of cells were transferred into the electroporation cuvette containing 10 μg of the reporter vector (PCRE-luc) in a volume of 40 μL H2O. Reporter vector DNA was prepared from DH5α E. coli using the DNA […] free kit (Qiagen) as per manufacturers instructions. U937 cells were clectroporated at room temperature using a BIORAD electroporator. Capacitance was set to 1050 μF and voltage was 280V. The time constant was noted after each electroporation. Cells were then diluted in 4 mL of media and serum and 200 μL of cells were plated per well. Cells were allowed to recover for 16-18 hours. Cells were then treated with a test compound or vehicle in the presence or absence of 10 μM forskolin for 4 hours at 37° C.
The luciferase assay was performed as per manufacturers instructions (Tropix). Briefly, cells were centrifuged for 4 minutes at 1200 rpm and media supernatant was removed. Cell pellets were lysed in 15 μL Lysis buffer (Tropix). Luciferase assay was performed using 10 μL of cell lysate with 10 μL of buffer A and 25 μL buffer B. Luciferase activity was obtained using a luminometer with a 5-second delay followed by a read time of 10 seconds.

[3] = test system: primary human neutrophils; assay: Generation of reactive oxygen species by fMLP-activated neutrophils (luminol-enhanced chemiluminescence); type: cell-based; conditions: Neutrophil
From the text: Neutrophil activation can be measured by quantitation of ROS generated in vitro. Measurement of ROS allows specific quantitation of a pro-inflammatory species and is also a general measure of neutrophil activation. The most sensitive method for measuring the production of ROS by neutrophils is luminol-enhanced chemiluminescence. […] The assay system used to evaluate the ability of compounds to inhibit ROS generation in neutrophils is indicative of anti-inflammatory activity that may be efficacious in disease states including but not limited to rheumatoid arthritis and inflammatory bowel disease.
Freshly isolated primary human neutrophils (5×10^6 cells/mL) were incubated with the required concentrations of compound or vehicle for 30 minutes at 37° C. in HBSS buffer (pH 7.4) containing Ca^2+. 100 nM wortmannin was used as a positive control. Aliquots of each sample were transferred to a microtitre plate to which luminol (1 μM); obtained from Sigma; Catalogue No. A8511 is added. Activation of the neutrophils was immediately initiated by addition of (1 μM) fMLP; obtained from Sigma, Catalogue No. F3506. Light output from each well was recorded for 30 minutes in a microplate luminometer. Total light output (integral of the time-course) was determined for each well. Inhibitory activities of test drugs against neutrophil ROS generation is expressed as percentage activity relative to a no drug control (100% activation or generation of ROS) containing 0.25% DMSO. Concentration of test compound required to inhibit the generation of ROS to 50% of control values (IC50's) were determined from concentration-response curves by non-linear regression analysis.

[4] = test system: High Affinity Rolipram Binding Site of PDE4 in Mouse Brain; assay: Displacement of [3H]-rolipram from its high affinity binding site (HARBS); conditions: ratio of IC50 for PDE4 catalytic activity to concentration displacing 50% of rolipram from HARBS
Method: Suspension was centrifuged twice at 30,000×G at 4° C. and the supernatant discarded. The pellet was resuspended in buffer, and adjusted to a protein concentration of 0.5 mg/mL. Drugs to be tested were dissolved in DMSO and pipetted in triplicate into a 96 well microplate at concentrations ranging from 1 to 30,000 nM. […] The plate was incubated at 4° C. for 1 hour. Contents of the plate were aspirated through a Whatman GF/C filterplate, and rinsed with 4×200 μL ice-cold buffer. […] Triplicate determinations were performed at each concentration.

[5] = test system: TNBS-induced colitis in the rat; assay: TNBS-induced colitis model of inflammatory bowel disease in the rat;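 note: rat colitis induced by intracolonic TNBS in 50% ethanol, distal colon assessed at sacrifice on day 7, with saline-instilled vehicle-treated rats as controls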
Method: Colitis was induced by intracolonic instillation of the hapten TNBS (60 mg/mL) in 0.5 mL of 50% ethanol. […] An additional group of rats received saline intracolonically in place of TNBS/ethanol and was treated with vehicle at the same times as outlined above. Body weights were recorded at the beginning of the study and at days 2 and 7.
The rats were sacrificed on the 7th day after the induction of colitis and the extent of damage and inflammation was assessed. After the rats were sacrificed, the distal colon was removed and pinned out on a wax platform. The presence or absence of diarrhea was noted, as well as the presence and severity of adhesions between the colon and other organs, and the severity and extent of colonic damage. […] After scoring, a sample of colonic tissue was excised for measurement of myeloperoxidase activity as an index of granulocyte infiltration (see Wallace et al., Gastroenterology 117: in press, 1999; and Morris et al., Gastroenterology 96:795-803, 1989). This tissue sample was 1 cm long (along the axis of the colon) and 5 mm wide and was taken from a region of macroscopically visible damage (or the corresponding region in any rats in which there was no damage). The remainder of the tissue was fixed in neutral buffered formalin and processed by routine methods for subsequent evaluation by light microscopy. In a blinded manner, the sample of colonic tissue from each rat was examined for evidence of mucosal ulceration and inflammation. The percentage of the luminal surface of the section in which ulceration was present was calculated.

[6] = read-out: IC50 range (μM) 10-100
[7] = read-out: IC50 RANGE (μM) >100, ROS production, X marks this range
[8] = read-out: EC50 range (μM) 0.1-1
[9] = read-out: IC50 RANGE (μM) <1, ROS production, X marks this range
[10] = ROS production, X marks this range, read-out: IC50 RANGE (μM) 1-10
[11] = 100 mg/kg intracolonically at 12 h intervals for one week
[12] = 100 mg/kg intracolonically at 12 h intervals for one week, day 7

Compound	EC50 ([2]; read-out: EC50 range (μM) 1-25)	IC50 [1]	PDE4:HARBS [4]	other results
COc1ccc([C@H]2COC(=O)C(Cc3ccc(F)c(F)c3)C2)cc1OC (some centres unmarked) [Compound 77]	1 to 25 µM	–	–	IC50 [1, 6]: 10 to 100 µM; IC50 [3, 7]: > 100 µM
C=C(C)COc1cc([C@@H]2CCC(=O)OC2)ccc1OC [Compound 156]	–	> 100 µM	1	EC50 [2, 8]: 0.1 to 1 µM; IC50 [3, 9]: < 1 µM
COc1ccc([C@@H]2CCC(=O)OC2)cc1OC(C)C [Compound 155]	1 to 25 µM	> 100 µM	<1	EC50 [2, 8]: 0.1 to 1 µM; IC50 [3, 10]: 1 to 10 µM
CCCCCCCOc1cc([C@@H]2CCC(=O)OC2)ccc1OC [Compound 161]	–	> 100 µM	<1	EC50 ([2]; read-out: EC50 range (μM) >25): > 25 µM
COc1ccc([C@H]2COC(=O)C(Cc3ccc(O)c(N)c3)C2)cc1Cc1ccccc1 (some centres unmarked) [Compound 114]	–	> 100 µM	–	–
COc1ccc([C@@H]2CCC(=O)N(Cc3ccccc3)C2)cc1OC [Compound 47]	1 to 25 µM	–	–	IC50 [1, 6]: 10 to 100 µM; IC50 [3, 10]: 1 to 10 µM
COc1ccc([C@H]2COC(=O)C(Cc3ccc(O)c(O)c3)C2)cc1OC (some centres unmarked) [Compound 80]	1 to 25 µM	–	–	IC50 [1, 6]: 10 to 100 µM; IC50 [3, 9]: < 1 µM
COc1ccc([C@H]2COC(=O)C(Cc3cccc(OCc4ccccc4)c3)C2)cc1OC1CCCC1 (some centres unmarked) [Compound 172]	–	–	<1	–
COc1ccc(CC2C[C@@H](c3ccc(OC)c(OC4CCCC4)c3)COC2=O)cc1O (some centres unmarked) [Compound 180]	–	–	>1	–
COc1ccc([C@H]2COC(=O)C(Cc3cccc(C(F)(F)F)c3)C2)cc1OC1CCCC1 (some centres unmarked) [Compound 169]	–	–	<1	–
COc1ccc([C@H]2COC(=O)C(Cc3ccc4c(c3)OCO4)C2)cc1OC1CCCC1 (some centres unmarked) [Compound 171]	–	–	<1	–
COc1ccc([C@H]2COC(=O)C(Cc3ccc(N)cc3)C2)cc1OC1CCCC1 (some centres unmarked) [Compound 185]	–	–	>1	–
COc1ccc([C@H]2COC(=O)C(Cc3ccc(OC)c(OCc4ccccc4)c3)C2)cc1OC (some centres unmarked) [Compound 135]	1 to 25 µM	–	<1	IC50 [1, 6]: 10 to 100 µM; IC50 [3, 9]: < 1 µM
COc1ccc([C@H]2COC(=O)C(Cc3ccc(OCc4ccccc4)c(OCc4ccccc4)c3)C2)cc1OC (some centres unmarked) [Compound 79]	–	> 100 µM	<1	EC50 [2, 8]: 0.1 to 1 µM; IC50 [3, 7]: > 100 µM
COc1ccc([C@H]2COC(=O)C(Cc3ccc(OCc4ccccc4)c(OC)c3)C2)cc1OC (some centres unmarked) [Compound 22]	1 to 25 µM	> 100 µM	<1	IC50 [3, 7]: > 100 µM
COc1ccc([C@H]2COC(=O)C(Cc3ccccc3)C2)cc1OC (some centres unmarked) [Compound 139]	1 to 25 µM	> 100 µM	–	IC50 [3, 7]: > 100 µM
COc1ccc([C@H]2COC(=O)C(Cc3ccccc3[N+](=O)[O-])C2)cc1OC1CCCC1 (some centres unmarked) [Compound 174]	–	> 100 µM	<1	EC50 ([2]; read-out: EC50 range (μM) >25): > 25 µM; IC50 [3, 7]: > 100 µM

Compound	EC50 ([2]; read-out: EC50 range (μM) 1-25)	IC50 [1]	PDE4:HARBS [4]	other results
COc1ccc(CC2(Cc3ccc(OC)c(O)c3)C[C@@H](c3ccc(OC)c(OC4CCCC4)c3)COC2=O)cc1O [Compound 181]	–	> 100 µM	<1	EC50 ([2]; read-out: EC50 range (μM) >25): > 25 µM; IC50 [3, 10]: 1 to 10 µM
CCCCCOc1cc([C@@H]2CCC(=O)OC2)ccc1OC [Compound 159]	–	> 100 µM	>1	EC50 ([2]; read-out: EC50 range (μM) >25): > 25 µM
Nc1ccc(O)c(C(=O)O)c1 [Compound 5-ASA, 5-aminosalicylic acid]	–	–	–	Body Weight Change (%) [5, 11]: −20.2 ± 3.4%; Mortality [5, 11]: 0/8; Adhesion (Incidence) [5, 12]: (7/8); Adhesion Score [5, 12]: 1.4 ± 0.3; Bowel Thickness (mm) [5, 12]: 2.66 ± 0.69 mm; Damage Score [5, 12]: 6.3 ± 0.8; Global Colitis Score [5, 12]: 10.41 ± 1.58; loss of body weight ([5]; 100 mg/kg, one-week study): ~20%; MPO Activity (U/mg) ([5]; colonic tissue, 100 mg/kg intracolonically at 12 h intervals for one week, day 7): 67.5 ± 8.8 U/mg; Diarrhea ([5]; incidence, 100 mg/kg intracolonically at 12 h intervals for one week, day 7, 100 mg/kg): significantly reduce and 1/8; Histology Score ([5]; percentage of luminal surface ulcerated, 100 mg/kg intracolonically for one week, day 7): 91.4 ± 5.9
COc1ccc(N)cc1CC1C[C@@H](c2ccc(OC)c(OC3CCCC3)c2)COC1=O (some centres unmarked) [Compound 186]	–	–	>1	–
COc1ccc([C@H]2COC(=O)C(Cc3ccc(O)cc3)C2)cc1OC1CCCC1 (some centres unmarked) [Compound 183]	–	–	<1	–
CCCCCCCCOc1cc([C@@H]2CCC(=O)OC2)ccc1OC [Compound 162]	–	> 100 µM	–	EC50 ([2]; read-out: EC50 range (μM) >25): > 25 µM
COc1ccc([C@H]2COC(=O)C(Cc3ccc(C)c([N+](=O)[O-])c3)C2)cc1OC1CCCC1 (some centres unmarked) [Compound 176]	–	–	>1	–
CCCOc1cc(C2CCC(=O)OC2)ccc1OC (centres unmarked) [Compound 154]	1 to 25 µM	–	>1	IC50 [3, 9]: < 1 µM
COc1ccc([C@H]2COC(=O)C(C)C2)cc1OC1CCCC1 (some centres unmarked) [Compound 95]	–	> 100 µM	–	–
COc1cc2c(cc1OC)-c1c/c(=N\c3c(C)cc(C)cc3C)n(C)c(=O)n1CC2 [trequinsin, reference compound]	–	–	–	effect in PDE3 assay ([1]; platelet cell extract, cAMP as substrate): potent inhibitor
CCOc1cc(C2CCC(=O)OC2)ccc1OC (centres unmarked) [Compound 153]	1 to 25 µM	–	>1	IC50 [3, 9]: < 1 µM
COc1ccc([C@H]2COC(=O)C(Cc3ccc(C)c(N)c3)C2)cc1OC1CCCC1 (some centres unmarked) [Compound 187]	–	–	>1	–
CCCCCCOc1cc([C@@H]2CCC(=O)OC2)ccc1OC [Compound 160]	1 to 25 µM	> 100 µM	<1	–
COc1ccc([C@H]2COC(=O)C(Cc3cccc(O)c3)C2)cc1OC (some centres unmarked) [Compound 131]	1 to 25 µM	> 100 µM	–	IC50 [3, 9]: < 1 µM
C=CCC1C[C@@H](c2ccc(OC)c(OC3CCCC3)c2)COC1=O (some centres unmarked) [Compound 96]	–	> 100 µM	–	–
COc1ccc([C@@H]2CCC(=O)OC2)cc1OCC1CCCCC1 [Compound 158]	–	> 100 µM	<1	EC50 [2, 8]: 0.1 to 1 µM
COc1ccc([C@H]2COC(=O)C(Cc3cccc(O)c3)C2)cc1OC1CCCC1 (some centres unmarked) [Compound 182]	–	–	<1	–

— patent publication US20030186943A1, “Substituted gamma-phenyl-delta-lactams and uses related thereto” (Inflazyme Pharmaceuticals Ltd., priority 1998, published 2003)
